Molecular target: beta2-adrenergic receptors in A431 (Homo sapiens, UniProt P07550)
Conditions: quiescent A431 cells; epinephrine gradient; responses resembled classical dose-dependent responses
Protocol: Human epidermoid carcinoma A431 cells were obtained from American Type Cell Culture. A431 cells were grown in Dulbecco's modified Eagle's medium (DMEM) supplemented with 10% fetal bovine serum (FBS), 4.5 g/liter glucose, 2 mM glutamine, and antibiotics. For cell culture, ˜4×10^4 cells suspended in 6 μl the medium containing 10% FBS were injected into the chamber, and were cultured at 37° C. under air/5% CO2 until ˜95% confluency was reached (˜1 day). To prevent drying during the culture, the biosensor device was maintained within a petri dish with a cover, and extra cell medium within the dish. The cells were then subject to starvation with the medium without any FBS for overnight. […] The optical system allows one to collect the resonant image of whole sensor at the single cell.
Coming RWG imaging system was used for label-free biosensor cell assays. The imaging system is capable of high resolution imaging, with a spatial resolution of 6 microns in the direction perpendicular to the propagation path of the coupled light, a resolution of about 150 microns in the direction parallel to the propagation path of the coupled light. The cellular responses across the whole sensor were recorded in real time at each pixel (6 microns×6 microns). The cellular responses at defined locations or zones from the inlet to the outlet were averaged to generate location-dependent cellular responses. […]

Sequence of beta2-adrenergic receptors in A431 (P07550 whole entry): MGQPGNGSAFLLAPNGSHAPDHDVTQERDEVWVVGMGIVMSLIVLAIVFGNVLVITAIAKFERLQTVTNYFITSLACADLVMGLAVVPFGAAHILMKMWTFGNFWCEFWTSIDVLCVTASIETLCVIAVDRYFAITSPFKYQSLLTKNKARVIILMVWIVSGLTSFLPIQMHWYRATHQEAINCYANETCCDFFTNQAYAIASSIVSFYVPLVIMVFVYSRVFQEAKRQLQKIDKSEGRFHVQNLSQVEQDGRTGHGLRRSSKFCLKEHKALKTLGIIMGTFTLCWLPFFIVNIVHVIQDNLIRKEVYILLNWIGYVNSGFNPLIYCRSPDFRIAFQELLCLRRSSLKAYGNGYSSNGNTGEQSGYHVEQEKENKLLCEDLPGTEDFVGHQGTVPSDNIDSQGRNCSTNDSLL

Question: Which “chemoattractant determination from location-dependent DMR responses” value does the source give for `CNC[C@H](O)c1ccc(O)c(O)c1` [epinephrine] here?
Answer: not a chemoattractant

Reference: patent US20100130829A1, “MATERIALS AND METHODS FOR DETECTING EARLY CELL MIGRATION EVENTS” (priority 2008, published 2010)
